Measured values reported in patent publication US20030086872A1, “SUT-2 and SUT-3 genes, proteins and assays for inhibitors of lymphocyte adhesion” (priority 2001, published 2003).
Entries after “also recorded” stand apart in the source; their conditions may differ.

Key:
NaSi-1 = biological target: T1, NaSi-1 (Rattus norvegicus, UniProt Q07782); conditions: rat kidney and small intestine; cited from earlier work
T1 sequence (Q07782 1-595): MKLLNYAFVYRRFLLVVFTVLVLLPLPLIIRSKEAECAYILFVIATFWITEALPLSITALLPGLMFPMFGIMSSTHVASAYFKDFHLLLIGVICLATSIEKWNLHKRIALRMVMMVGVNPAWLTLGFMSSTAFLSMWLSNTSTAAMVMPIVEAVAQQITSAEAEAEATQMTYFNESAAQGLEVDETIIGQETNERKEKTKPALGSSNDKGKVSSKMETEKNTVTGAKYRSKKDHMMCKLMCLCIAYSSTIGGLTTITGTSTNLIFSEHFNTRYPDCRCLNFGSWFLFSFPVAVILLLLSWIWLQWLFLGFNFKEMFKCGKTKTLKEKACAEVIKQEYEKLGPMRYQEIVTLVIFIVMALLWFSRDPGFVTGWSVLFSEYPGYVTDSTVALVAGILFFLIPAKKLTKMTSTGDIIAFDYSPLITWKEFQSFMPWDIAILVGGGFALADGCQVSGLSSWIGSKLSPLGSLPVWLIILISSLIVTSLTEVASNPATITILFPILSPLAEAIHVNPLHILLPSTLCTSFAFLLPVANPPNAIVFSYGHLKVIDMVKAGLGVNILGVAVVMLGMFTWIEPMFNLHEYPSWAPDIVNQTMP

SAT-1 = biological target: T2, SAT-1 (Rattus norvegicus, UniProt P45380); conditions: rat hepatocytes; cited from earlier work
T2 sequence (P45380 1-703): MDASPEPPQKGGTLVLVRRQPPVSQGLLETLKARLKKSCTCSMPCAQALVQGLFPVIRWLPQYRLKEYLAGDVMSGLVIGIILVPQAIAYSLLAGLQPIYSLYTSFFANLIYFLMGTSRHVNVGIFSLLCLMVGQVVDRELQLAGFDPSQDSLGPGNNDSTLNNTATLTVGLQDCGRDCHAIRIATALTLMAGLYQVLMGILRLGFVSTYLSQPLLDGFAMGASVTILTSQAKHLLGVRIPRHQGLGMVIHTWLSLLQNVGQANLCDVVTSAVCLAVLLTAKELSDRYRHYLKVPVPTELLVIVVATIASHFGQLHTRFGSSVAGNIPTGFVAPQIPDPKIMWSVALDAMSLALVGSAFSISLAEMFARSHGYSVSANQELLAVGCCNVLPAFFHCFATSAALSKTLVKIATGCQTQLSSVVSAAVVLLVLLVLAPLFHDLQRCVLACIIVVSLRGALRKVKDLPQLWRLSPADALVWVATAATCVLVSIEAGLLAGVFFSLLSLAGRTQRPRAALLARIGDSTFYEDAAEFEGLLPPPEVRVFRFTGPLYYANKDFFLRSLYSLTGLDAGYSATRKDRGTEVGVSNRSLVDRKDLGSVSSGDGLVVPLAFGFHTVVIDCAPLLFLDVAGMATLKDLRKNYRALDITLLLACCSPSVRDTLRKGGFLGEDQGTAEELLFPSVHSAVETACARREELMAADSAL

SUT-3 = biological target: T3, SUT-3 (Homo sapiens, UniProt Q86WA9); test: Sulfate uptake by Sf9 insect cells infected with baculovirus expressing SUT-3; assay type: cell-based; conditions: 1 mM DIDS; uptake of 500 μM Na2SO4; Sf9 cells infected at MOI of 5
T3 construct: The full length SLC26A11 ORF was PCR amplified from IMAGE clone; expressed in transfected cells; host or cells: Sf9 insect cells infected with recombinant baculovirus (pVL1393-SUT-3, polyhedrin promoter)
T3 sequence (Q86WA9 1-606): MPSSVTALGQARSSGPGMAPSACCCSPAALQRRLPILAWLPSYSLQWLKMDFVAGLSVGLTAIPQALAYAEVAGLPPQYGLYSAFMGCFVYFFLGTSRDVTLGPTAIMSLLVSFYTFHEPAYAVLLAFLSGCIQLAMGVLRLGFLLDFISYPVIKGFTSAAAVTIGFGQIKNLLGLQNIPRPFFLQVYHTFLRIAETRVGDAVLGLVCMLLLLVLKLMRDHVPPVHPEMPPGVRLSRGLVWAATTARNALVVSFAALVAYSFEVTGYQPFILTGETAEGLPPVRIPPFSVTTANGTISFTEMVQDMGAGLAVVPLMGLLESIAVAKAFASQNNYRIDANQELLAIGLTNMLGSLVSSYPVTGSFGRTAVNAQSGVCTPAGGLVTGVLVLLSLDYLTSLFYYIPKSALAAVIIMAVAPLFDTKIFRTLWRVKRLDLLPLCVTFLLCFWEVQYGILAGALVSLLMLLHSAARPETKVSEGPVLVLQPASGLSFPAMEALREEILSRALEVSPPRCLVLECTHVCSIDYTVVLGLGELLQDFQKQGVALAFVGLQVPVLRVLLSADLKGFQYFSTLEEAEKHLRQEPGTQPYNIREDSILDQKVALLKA
Protocol: The full length SLC26A11 ORF was PCR amplified from IMAGE clone N^o 4793646, with 10 pmol of primers ATG-SUT-3 (5′-[…]) (SEQ ID NO: 21) and STOP-SUT-3 (5′-[…]-3′)(SEQ ID NO: 22), using 3 units of Pfu (Promega) in its reaction buffer with 400 μM dNTP. PCR cycles were 30×(94° C., 1′, 60° C., 1′, 72° C., 4′). The PCR product was then phosphorylated at its 5′ extremities using 2 units of T4 Polynucleotide Kinase (PROMEGA). 2 μg of pVL1393 vector (BD Biosciences) were digested with 10 units of EcoRI and NotI endonucleases, extremities were blunt-ended with 10 units of T4 DNA polymerase (PROMEGA) and 5′ extremities were dephosphated with 1 unit of Calf Intestine Phosphatase (Boehringer). 100 ng of purified insert and vector were then ligated together using 1 unit of T4 DNA Ligase (Biolabs). All enzymes were used according to supplier's instructions. After restriction analysis, DNA sequencing was performed using the Big Dye Sequencing Kit (Perkin Elmer) according to manufacturer's protocol. […]
For all experiments, 80 cm^2 flasks containing 60% confluent Sf9 cells were infected at a MOI of 5 and incubated for 3 days at 27° C. for protein expression. […] Protein concentration was evaluated using the BIO-RAD protein Assay Kit according to the manufacturer's protocol and cell-associated radioactivity was determined in a Tri-Carb 2100 liquid scintillation counter (Packard). […]

DTD = biological target: T4, DTD (Homo sapiens, UniProt P50443); conditions: cited from earlier work
T4 sequence (P50443 1-739): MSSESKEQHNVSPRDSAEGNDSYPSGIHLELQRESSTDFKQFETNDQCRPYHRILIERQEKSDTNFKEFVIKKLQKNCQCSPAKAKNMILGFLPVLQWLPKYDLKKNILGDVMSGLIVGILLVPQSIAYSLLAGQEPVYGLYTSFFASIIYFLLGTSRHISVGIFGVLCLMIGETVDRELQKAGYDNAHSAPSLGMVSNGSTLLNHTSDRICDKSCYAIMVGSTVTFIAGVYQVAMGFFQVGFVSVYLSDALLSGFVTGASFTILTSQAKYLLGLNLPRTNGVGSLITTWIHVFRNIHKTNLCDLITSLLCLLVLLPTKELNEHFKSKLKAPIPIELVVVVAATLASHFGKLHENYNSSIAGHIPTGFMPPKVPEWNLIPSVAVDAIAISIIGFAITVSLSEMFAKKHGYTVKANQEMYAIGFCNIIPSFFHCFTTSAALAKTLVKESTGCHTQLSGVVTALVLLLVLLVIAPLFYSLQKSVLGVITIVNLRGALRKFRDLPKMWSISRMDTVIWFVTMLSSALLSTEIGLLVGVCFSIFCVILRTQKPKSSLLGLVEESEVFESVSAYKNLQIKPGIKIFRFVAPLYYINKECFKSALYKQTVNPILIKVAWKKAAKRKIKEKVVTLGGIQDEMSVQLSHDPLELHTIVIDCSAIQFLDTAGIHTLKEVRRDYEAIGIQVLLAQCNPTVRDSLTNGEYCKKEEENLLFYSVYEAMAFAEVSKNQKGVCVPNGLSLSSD

DRA = biological target: T5, DRA (Homo sapiens, UniProt P40879); conditions: cited from earlier work
T5 sequence (P40879 1-764): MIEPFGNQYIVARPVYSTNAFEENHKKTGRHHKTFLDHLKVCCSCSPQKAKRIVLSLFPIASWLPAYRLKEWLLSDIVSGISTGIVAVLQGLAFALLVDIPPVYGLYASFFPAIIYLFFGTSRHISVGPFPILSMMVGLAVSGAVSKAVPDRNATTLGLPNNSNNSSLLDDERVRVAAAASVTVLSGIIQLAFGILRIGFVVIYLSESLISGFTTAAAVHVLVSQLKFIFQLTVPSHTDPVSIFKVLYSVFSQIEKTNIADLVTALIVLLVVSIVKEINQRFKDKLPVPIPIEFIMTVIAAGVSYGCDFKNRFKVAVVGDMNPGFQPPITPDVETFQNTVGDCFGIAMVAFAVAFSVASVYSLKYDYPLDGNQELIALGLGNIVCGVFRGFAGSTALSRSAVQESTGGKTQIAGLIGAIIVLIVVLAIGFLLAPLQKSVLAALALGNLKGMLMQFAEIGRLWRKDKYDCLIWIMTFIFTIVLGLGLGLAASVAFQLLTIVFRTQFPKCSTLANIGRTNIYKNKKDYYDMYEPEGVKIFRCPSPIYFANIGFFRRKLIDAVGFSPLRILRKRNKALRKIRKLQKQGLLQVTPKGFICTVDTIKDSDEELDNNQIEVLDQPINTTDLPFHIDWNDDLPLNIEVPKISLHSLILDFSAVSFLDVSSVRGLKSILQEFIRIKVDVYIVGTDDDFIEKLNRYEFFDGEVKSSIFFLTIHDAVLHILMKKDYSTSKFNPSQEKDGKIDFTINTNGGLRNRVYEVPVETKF

SUT-1 = biological target: T6, SUT-1 (Homo sapiens, UniProt Q9UKG4); conditions: cited from earlier work
T6 sequence (Q9UKG4 1-626): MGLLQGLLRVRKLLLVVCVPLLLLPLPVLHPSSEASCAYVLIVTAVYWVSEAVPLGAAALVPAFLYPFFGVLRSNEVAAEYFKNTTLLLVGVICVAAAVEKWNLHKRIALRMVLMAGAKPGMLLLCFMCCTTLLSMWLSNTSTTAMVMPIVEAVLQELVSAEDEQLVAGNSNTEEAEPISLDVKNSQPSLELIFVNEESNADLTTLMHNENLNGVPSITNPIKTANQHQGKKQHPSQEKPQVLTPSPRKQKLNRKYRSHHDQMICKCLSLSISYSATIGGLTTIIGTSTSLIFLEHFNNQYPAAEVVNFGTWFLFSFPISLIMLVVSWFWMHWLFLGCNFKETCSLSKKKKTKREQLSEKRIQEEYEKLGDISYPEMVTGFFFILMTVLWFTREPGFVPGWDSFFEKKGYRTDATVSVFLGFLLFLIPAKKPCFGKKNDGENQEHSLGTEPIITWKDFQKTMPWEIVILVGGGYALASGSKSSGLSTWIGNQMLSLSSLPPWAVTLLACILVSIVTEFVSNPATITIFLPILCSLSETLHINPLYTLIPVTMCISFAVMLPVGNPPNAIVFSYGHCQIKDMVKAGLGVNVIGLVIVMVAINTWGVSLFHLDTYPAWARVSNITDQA

selectins = conditions: cited from earlier work

Compound	sensitivity of NaSi-1 sulfate transport to DIDS (NaSi-1)	sensitivity of SAT-1 sulfate transport to DIDS (SAT-1)	inhibition of SUT-3-mediated sulfate uptake (SUT-3)	sensitivity of DTD to DIDS (DTD)	sensitivity of DRA to DIDS (DRA)	sensitivity of SUT-1 sulfate transport to DIDS (SUT-1)	endothelial expression of selectins (selectins)
O=S(=O)(O)c1cc(N=C=S)ccc1C=Cc1ccc(N=C=S)cc1S(=O)(=O)O [DIDS, 4,4′-diisothiocyanostilbene-2,2′-disulfonic acid]	resistant	sensitive	sensitive; also recorded: efficiently inhibited	sensitive	sensitive	resistant	
COc1cc2c(c(OC)c1OC)-c1ccc(OC)c(=O)cc1[C@@H](NC(C)=O)CC2 [colchicine]							downregulate
